We go through six compounds from patent US9849146B2, “Inhibition of nonsense mediated mRNA decay by drugs that prevent hypusination of eukaryotic initiation factor 5A” (RUTGERS, THE STATE UNIVERSITY OF NEW JERSEY, priority 2009, dated 2017).

For one data set, the target named is T1, eIF5A:DHS complexes (Homo sapiens, UniProt P49366).
T1 construct: expressed in transfected cells; host or cells: 293T cells (FLAG-DHS transfected; eIF5A endogenous)
T1 sequence (P49366 1-369): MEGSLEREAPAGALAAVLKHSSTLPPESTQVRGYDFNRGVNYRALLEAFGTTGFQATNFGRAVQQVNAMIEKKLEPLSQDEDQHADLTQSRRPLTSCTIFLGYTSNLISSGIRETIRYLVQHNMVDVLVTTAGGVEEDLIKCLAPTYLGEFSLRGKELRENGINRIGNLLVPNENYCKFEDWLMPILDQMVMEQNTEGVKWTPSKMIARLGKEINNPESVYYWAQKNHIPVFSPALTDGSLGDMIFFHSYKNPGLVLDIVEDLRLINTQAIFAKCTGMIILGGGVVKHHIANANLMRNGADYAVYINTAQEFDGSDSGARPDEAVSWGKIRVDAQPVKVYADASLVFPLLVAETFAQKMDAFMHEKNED
The experiment in a line: Co-immunoprecipitation of endogenous eIF5A with FLAG-DHS from transfected 293T cells. Conditions: FLAG-DHS transfected 293T cells; GC7 10 μM, CPX 30 μM, DEF 250 μM. The format is cell-based. As to the method: (§1) FIG. 2E illustrates 293T cells transfected with FLAG-DHS, FLAG-DOHH or empty vector (control) were treated with GC7, CPX, or DEF, or no drug (-) at the same concentration as in FIG. 2D. Immunoprecipitates obtained with anti-FLAG antibody were immunoblotted and probed with anti-eIF5A antibody (BD). WCE equivalent to 5% of the input was immunoblotted as a further control. Reciprocally, the interaction between endogenous eIF5A and tagged DOHH was inhibited by CPX and DEF (FIG. 2E, right). Similarly, the interaction of endogenous eIF5A with tagged DHS was inhibited by GC7 (FIG. 2E, left), but was resistant to CPX and DEF (not shown).

The subject of a further data set is NMD. Kind of data set: NMD luciferase reporter assay with vectors containing NMD signals associated with β039-thalassemia. The settings on record: for submaximal effect of the NMD inhibitor when combined with nonsense suppressor G418: 15 μM CPX, 125 μM DEF, 200 μM HYD, G418 at 800 μM; for drug concentrations at which inhibition of NMD is seen: dose-dependent; for NMD in the thalassemia model system: ratio of Renilla luciferase from NMD-sensitive reporter to matched NMD-insensitive control. The format is cell-based. As to the method:
The experiment of FIG. 5 used RNA silencing with small interfering RNAs (siRNAs) to deplete eIF5A itself, or either of the modifying enzymes required for hypusine formation. […] Data are shown as ratio of luciferase activities.
These experiments were carried out in the well-authenticated assay system using vectors containing NMD signals associated with β^039-thalassemia (Woeller C F, Gaspari M, Isken O, Maquat L.: EMBO Rep. 2008 May; 9(5):446-51).
A general note: In a reporter assay the amount or activity of a reporter protein is the signal.

For the next data set, the target named is T2, DOHH (Homo sapiens, UniProt Q9BU89).
T2 construct: endogenous in cells; host or cells: 293T cells
T2 sequence (Q9BU89 1-302): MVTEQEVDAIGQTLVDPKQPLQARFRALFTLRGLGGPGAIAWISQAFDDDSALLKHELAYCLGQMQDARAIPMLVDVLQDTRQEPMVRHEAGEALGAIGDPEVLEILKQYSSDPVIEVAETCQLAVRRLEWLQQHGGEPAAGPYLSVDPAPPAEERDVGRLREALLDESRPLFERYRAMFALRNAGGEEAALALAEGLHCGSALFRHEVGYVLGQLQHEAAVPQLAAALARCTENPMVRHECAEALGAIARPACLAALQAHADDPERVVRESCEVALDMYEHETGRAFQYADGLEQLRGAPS
Kind of data set: Immunoblot of eIF5A modification (maturation) in 293T cells transfected with FLAG-tagged eIF5A. The format is cell-based. Conditions: for concentration range reducing the appearance of mature eIF5A: FLAG-eIF5A, NIH-353 immunoblot. The text has this: To examine the effect of compounds on the synthesis of modified eIF5A, 293T cells transfected with a FLAG-tagged eIF5A expression vector were simultaneously treated with ciclopirox (“CPX”) or deferiprone (“DEF”).
FLAG-eIF5A was monitored using NIH-353 and anti-FLAG antibodies (FIGS. 2A and 2B). FIG. 2A illustrates inhibition of eIF5A modification in 293T cells. Cells transfected with FLAG-tagged eIF5A were untreated or treated with increasing concentrations of CPX as indicated, or with agent P2. FIG. 2B illustrates cells transfected with FLAG-tagged eIF5A that were untreated or treated with increasing concentrations of DEF as indicated, or with DFOX. At 24 hours post-transfection, whole cell extract (“WCE”) was analyzed by immunoblotting with the NIH-353 anti-eIF5A antibody (upper panel) and anti-actin antibody (lower panel). The […] antibody reacts preferentially with post-translationally modified eIF5A. CPX reduced the appearance of mature eIF5A over the 3-30 μM concentration range, while DEF was effective at 200-400 μM. […] In addition to the CPX homolog Agent P2, deferoxamine (“DFOX”; Desferal™) was used as a control compound. DFOX, a metal-binding hydroxamate like CPX and Agent P2 (FIG. 3), is a globally used medicinal iron chelator.
FIG. 2C illustrates cells transfected with FLAG-tagged eIF5A that were treated with CPX (30 μM), P2 (30 μM), DEF (250 μM), DFOX (10 μM), or no compound (-). At 24 hours post transfection, WCE was analyzed by immunoblotting with the NIH-353 anti-eIF5A antibody (upper panel) and anti-FLAG antibody (lower panel). The control culture was transfected with empty vector and no compound was added.

For data set [1] the following is noted: cited from earlier work.
The next data set addresses T3, eIF5A:DOHH complex (Homo sapiens, UniProt Q9BU89).
T3 construct: Endogenous DOHH co-immunoprecipitated with FLAG-eIF5A; expressed in transfected cells; host or cells: 293T cells (FLAG-eIF5A transfected; DOHH endogenous)
T3 sequence (Q9BU89 1-302): T2 sequence (Q9BU89 1-302)
Kind of data set: Co-immunoprecipitation of the eIF5A:DOHH complex from transfected 293T cells. The format is cell-based. Conditions: CPX 30 μM, DEF 250 μM; for interaction between endogenous eIF5A and tagged DOHH: FLAG-DOHH transfected 293T cells; for association of endogenous DOHH with FLAG-eIF5A (co-immunoprecipitation): GC7 10 μM, P2 30 μM, DFOX 10 μM, 24 hours post-transfection. As to the method:
Unmodified eIF5A (lysine-50) immunoprecipitates with DHS, and deoxyhypusyl-eIF5A interacts with DOHH in vitro. The deoxyhypusyl-eIF5A:DOHH complex formed in vivo can be detected by immunoprecipitation from cell extracts. Taking advantage of this finding, the effects of the compounds on the enzyme-substrate interaction was tested, the results of which are illustrated in FIG. 2D. FLAG-eIF5A was expressed in 293T cells. 293T cells transfected with FLAG-eIF5A were untreated (-) or treated with GC7 (10 μM) or CPX (30 μM), P2 (30 μM), DEF (250 μM), or DFOX (10 μM). WCE prepared at 24 hours post-transfection was immunoprecipitated with anti-FLAG antibody. Complexes that immunoprecipitated with anti-FLAG antibody were immunoblotted and probed with antibodies against DOHH. […] As a further control, the DHS inhibitor GC7 was included in this assay. […] As expected, none of the compounds affected the immunoprecipitation of FLAG-eIF5A (FIG. 2D, middle panel; note that the band marked with an asterisk (*) is background due to IgG light chain) or the expression of endogenous eIF5A (FIG. 2D, bottom panel).
as §1

The mark [2] stands for this setting: 293T cells, 24 hours post-transfection.

“Also recorded” adds a separate entry of the source.

Consider `Cc1cc(C2CCCCC2)n(O)c(=O)c1` [CPX, ciclopirox], for which, on eIF5A:DHS complexes, the “interaction of endogenous eIF5A with tagged DHS” value (“interaction of endogenous eIF5A” for short) is “resistant”. Moreover, in the data set on NMD, the “submaximal effect of the NMD inhibitor when combined with nonsense suppressor G418” value is listed as “distinctly enhanced” and the “NMD in the thalassemia model system” value is given as “inhibited”. Further, in the data set with NMD (thalassemia model system), the “drug concentrations at which inhibition of NMD is seen” value is on record as 15/30. On DOHH (setting [2]), the “concentration range reducing the appearance of mature eIF5A” value lay within 3 to 30 µM. The levels in skin in data set [1] (topical preparations containing up to 57.5 mM) was more than 30 µM. In addition, on eIF5A:DOHH complex, the “interaction between endogenous eIF5A and tagged DOHH” value is “inhibited”; the “association of endogenous DOHH with FLAG-eIF5A (co-immunoprecipitation)” value (“association of endogenous DOHH” below) was “largely prevented; also recorded: destabilized”.

In the case of `Cc1c(O)c(=O)ccn1C` [DEF, deferiprone], on eIF5A:DHS complexes, the “interaction of endogenous eIF5A” value is recorded as “resistant”. Also, in the data set on NMD, the “submaximal effect of the NMD inhibitor when combined with nonsense suppressor G418” value is listed as “distinctly enhanced” and the “NMD in the thalassemia model system” value is “inhibited”. In addition, the “NMD inhibition by single compound” value in the data set with NMD (DEF at 125 μM, HYD at 200 μM, each alone) is “ineffective individually”. Also, the “drug concentrations at which inhibition of NMD is seen” value with NMD (thalassemia model system) was 125/250. For the same compound, the “concentration range reducing the appearance of mature eIF5A” value on DOHH (setting [2]) was in the range of 200 to 400 µM. Moreover, the concentration in serum in data set [1] (after oral medication) is not below 250 µM. Further, on eIF5A:DOHH complex, the “interaction between endogenous eIF5A and tagged DOHH” value is listed as “inhibited”; the “association of endogenous DOHH” value is reported as “largely prevented; also recorded: destabilized”.

In the case of `CN[C@@H]1[C@@H](O)[C@@H](O[C@@H]2[C@@H](O)[C@H](O[C@H]3O[C@H]([C@@H](C)O)[C@@H](O)[C@H](O)[C@H]3N)[C@@H](N)C[C@H]2N)OC[C@]1(C)O` [G418], in the data set on NMD (thalassemia model system), the “effect on expression (nonsense suppressor, for comparison)” value is “expression-enhancing effect”.

With `NCCCCCCCN=C(N)N` [GC7], the “interaction of endogenous eIF5A” value on eIF5A:DHS complexes is “inhibited; also recorded: blocked formation”. Moreover, the “association of endogenous DOHH” value on eIF5A:DOHH complex was “No DOHH was associated with FLAG-eIF5A”.

With `NNc1nncc2ccccc12` [HYD, hydralazine], the “drug concentrations at which inhibition of NMD is seen” value in the data set with NMD (thalassemia model system) is given as 200/400.

For the compound `Cc1ccn(O)c(=O)c1` [P2], at DOHH, the “activity in cell-based assays” value is “little or no activity”. The “effect on the appearance of mature FLAG-eIF5A” value on DOHH (293T cells, 24 hours post-transfection, control compounds) is listed as “little or no effect”. Moreover, the “association of endogenous DOHH” value on eIF5A:DOHH complex is given as “neither P2 or DFOX prevented; also recorded: Neither DFOX nor P2 had any effect”.
